Experiments:
Format in all cases: functional, cell-based
[1] = system: PC-3; test: Cytotoxicity against human PC3 cells after 48 hrs by MTT assay; settings: PC-3, 48 h
[2] = system: DU-145; test: Cytotoxicity against human DU145 cells after 48 hrs by MTT assay; settings: DU-145, 48 h
[3] = system: LNCaP; test: Cytotoxicity against human LNCAP cells after 48 hrs by MTT assay
[4] = system: MCF7; test: Cytotoxicity against human MCF7 cells after 48 hrs by MTT assay; settings: MCF7, 48 h
[5] = Cytotoxicity against human MDA231 cells after 48 hrs by MTT assay; settings: MDA-MB-231, 48 h
[6] = system: MIA PaCa-2; test: Cytotoxicity against human MIAPaCa2 cells after 48 hrs by MTT assay; settings: MIA PaCa-2, 48 h

| SMILES | IC50 [1] [µM] | IC50 [2] [µM] | IC50 [3] [µM] | IC50 [4] [µM] | IC50 [5] [µM] | IC50 [6] [µM] |
| --- | --- | --- | --- | --- | --- | --- |
| Cn1cc(-c2coc(-c3ccc(Cl)cc3)n2)c2ccccc21 | 302 | 412 | 378 | 637 | 790 | 89.2 |
| COc1ccc(-c2nc(-c3c[nH]c4ccccc34)co2)cc1 | 133 | 164 | 507 | 43.8 | 108 | 35 |
| C(=C\c1nc(-c2c[nH]c3ccccc23)co1)/c1ccccc1 | 221 | 135 | 183 | 355 | 1000 | 872 |
| Cc1nc(-c2c[nH]c3ccccc23)co1 | 337 | 244 | 316 | 802 | 1000 | 688 |
| c1ccc2c(-c3cocn3)c[nH]c2c1 | 321 | 93.5 | 382 | 1000 | 1000 | 1000 |
| COc1cc(-c2nc(-c3c[nH]c4ccccc34)co2)ccc1O | 303 | 175 | 445 | 1000 | 1000 | 1000 |
| C=Cc1nc(-c2c[nH]c3ccccc23)co1 | 426 | 59.8 | 530 | 1000 | 1000 | 37.6 |
| Cn1cc(-c2coc(C3CCNCC3)n2)c2ccccc21 | 578 | 376 | 400 | 1000 | 1000 | 759 |
| c1ccc(-c2nc(-c3c[nH]c4ccccc34)co2)cc1 | 170 | 167 | 461 | 131 | 171 | 113 |
| Clc1ccc(Cn2cc(-c3coc(-c4ccc(Cl)cc4)n3)c3ccccc32)cc1 | 350 | 80.5 | 182 | 14.1 | 216 | 26 |
| c1ccc(Cc2nc(-c3c[nH]c4ccccc34)co2)cc1 | 368 | 349 | 377 | 1000 | 1000 | 1000 |
| Clc1ccc(-c2nc(-c3c[nH]c4ccccc34)co2)cc1 | 151 | 206 | 505 | 410 | 608 | 326 |
| COc1cc(-c2nc(-c3cn(C)c4ccccc34)co2)ccc1OCc1ccccc1 | 450 | 382 | 368 | 198 | 1000 | 318 |
| c1ccc2c(-c3coc(-c4ccncc4)n3)c[nH]c2c1 | 298 | 178 | 238 | 54.9 | 105 | 38.4 |
| c1ccc2c(-c3coc(C4CCNCC4)n3)c[nH]c2c1 | 407 | 381 | 476 | 294 | 528 | 230 |
| Fc1ccc(-c2nc(-c3c[nH]c4ccccc34)co2)cc1 | 42.8 | 31.8 | 59.8 | 28 | 90.4 | 40.6 |
| Oc1ccc(-c2nc(-c3c[nH]c4ccccc34)co2)cc1 | 382 | 247 | 449 | 580 | 1000 | 1000 |
| COc1ccc(-c2nc(-c3c[nH]c4ccccc34)co2)cc1OC | 359 | 300 | 278 | 759 | 1000 | 1000 |
